Measurements as given in patent US4559323A, “A41030 Antibiotics” (Eli Lilly and Company, priority 1984, dated 1985).
Where two headings read alike, the source gives them in different places.

Tests used:
Salmonella typhi = test: Agar-dilution MIC; assay type: cell-based; conditions: Table 17, 24 hours
[1] = Electrometric titration (pKa); assay type: physicochemical; conditions: electrometric titration in 66% dimethylformamide in water
Eubacterium aerofaciens = test: Agar-dilution MIC (anaerobes); assay type: cell-based; conditions: Table 14; Eubacterium aerofaciens 1235
Propionibacterium acnes = test: Agar-dilution MIC (anaerobes); assay type: cell-based; conditions: Table 14; Propionibacterium acnes 79
Excerpt: Antibiotic A41030 factors A, B and C have also been tested and found to be active against a genus of anaerobic bacteria identified as Propionibacterium acnes.

Hemophilus influenzae = test: Agar-dilution MIC; assay type: cell-based; conditions: Table 17, 24 hours
Clostridium perfringens = assay type: cell-based; conditions: Table 14; Clostridium perfringens 81
[2] = test system: Peptococcus asaccharolyticus; test: Agar-dilution MIC (anaerobes); assay type: cell-based; conditions: Table 14; Peptococcus asaccharolyticus 1302
S. pneumoniae = test: Experimental bacterial infection in mice, subcutaneous ED50; assay type: in vivo; conditions: two doses subcutaneously
Method: (§1) All of the A41030 factors tested have shown in vivo antimicrobial activity against experimental bacterial infections. When two doses of test compound were administered subcutaneously to mice in illustrative infections, the activity observed is measured as an ED50 value [effective dose in mg./kg. to protect fifty percent of the test animals: See Warren Wick, et al., J. Bacteriol. 81, 233-235 (1961)].

Staph. aureus = test: as above; assay type: in vivo; conditions: two doses subcutaneously
Method: as §1

S. pyogenes = test: as above; assay type: in vivo; conditions: two doses subcutaneously
Method: as §1

Clostridium difficile [3] = assay type: cell-based; conditions: Table 16
Excerpt: The A41030 antibiotic factors A, B, C, D, E, F, and G, are also active against a number of strains of Clostridium difficile, as determined by the agar-dilution method.

Clostridium septicum = test: Agar-dilution MIC (anaerobes); assay type: cell-based; conditions: Table 14; Clostridium septicum 1128
Clostridium difficile [4] = assay type: cell-based; conditions: Table 14; Clostridium difficile 2994
B. thetaiotaomicron = assay type: cell-based; conditions: Table 14; Bacteroides thetalotaomicron 1438
Excerpt: (§2) The agar-dilution procedure described by the International Collaborative study (ICS) group was used to determine the minimum inhibitory concentrations (MIC's).

Bacteroides corrodens = test: Agar-dilution MIC (anaerobes); assay type: cell-based; conditions: Table 14; Bacteroides corrodens 1874
[5] = test system: Fusobacterium necrophorum; test: Agar-dilution MIC (anaerobes); assay type: cell-based; conditions: Table 14; Fusobacterium necrophorum 6054A
Streptococcus pyogenes = test: Agar-dilution MIC; assay type: cell-based; conditions: Table 17; 24 hours; Streptococcus pyogenes C203
Excerpt: as §2

Streptococcus pneumoniae = test: Agar-dilution MIC; assay type: cell-based; conditions: Table 17; 24 hours; Streptococcus pneumoniae Park I
Excerpt: as §2

[6] = test system: Staphylococcus epidermidis; test: Agar-dilution MIC; assay type: cell-based; conditions: Table 17; 24 hours; Staphylococcus epidermidis EPI1
Excerpt: as §2

[7] = test system: Streptococcus sp. (Group D); test: Agar-dilution MIC; assay type: cell-based; conditions: Table 17, 24 hours
Excerpt: as §2

Bacteroides fragilis = test: Agar-dilution MIC (anaerobes); assay type: cell-based; conditions: Table 14
Excerpt: as §2

[8] = test system: Peptostreptococcus anaerobius; test: Agar-dilution MIC (anaerobes); assay type: cell-based; conditions: Table 14; Peptostreptococcus anaerobius 1428
Solubility in solvents = assay type: physicochemical; conditions: solvents as named
Excerpt: The seven antibiotic factors are recovered from the fermentation and are obtained as a mixture, the A41030 complex. It will be recognized that the ratio of the factors in the A41030 complex will vary, depending upon the fermentation conditions used. The individual factors […], and G are separated and isolated as individual compounds, as hereinafter described.

[9] = test system: Bacteroides melaninogenicus; test: Agar-dilution MIC (anaerobes); assay type: cell-based; conditions: Table 14; Bacteroides melaninogenicus 2736
Staphylococcus aureus = test: Agar-dilution MIC; assay type: cell-based; conditions: Table 17, 24 hours
Fusobacterium symbiosum = test: Agar-dilution MIC (anaerobes); assay type: cell-based; conditions: Table 14; Fusobacterium symbiosum 1470
[10] = test system: Peptostreptococcus intermedius; test: Agar-dilution MIC (anaerobes); assay type: cell-based; conditions: Table 14; Peptostreptococcus intermedius 1264
Peptococcus prevoti = test: Agar-dilution MIC (anaerobes); assay type: cell-based; conditions: Table 14; Peptococcus prevoti 1281
Bacteroides vulgatis = test: Agar-dilution MIC (anaerobes); assay type: cell-based; conditions: Table 14; Bacteroides vulgatis 1211

A41030 factor E
MIC (Salmonella typhi; Salmonella typhi 1335): > 128 µg/mL
MIC (Salmonella typhi; Salmonella typhi X514): > 128 µg/mL
pKa, first titratable group [1]: about 5.8
pKa, second titratable group [1]: ~7.7
MIC (Eubacterium aerofaciens): 0.5 µg/mL
MIC (Propionibacterium acnes): 0.5 µg/mL
MIC (Hemophilus influenzae; Haemophilus influenzae 76): 8 µg/mL
MIC (Hemophilus influenzae; Haemophilus influenzae C.L.): 8 µg/mL
MIC (Clostridium perfringens): 1.0 µg/mL
MIC [2]: ≤ 0.25 µg/mL
ED50 (S. pneumoniae): 3.11 mg/kg
ED50 (Staph. aureus): < 0.31 mg/kg
ED50 (S. pyogenes): 3.54 mg/kg
MIC (Clostridium difficile [3]; C. difficile 78): 0.5 µg/mL
MIC (Clostridium difficile [3]; C. difficile 107B): 0.5 µg/mL
MIC (Clostridium difficile [3]; C. difficile 111F): 0.5 µg/mL
MIC (Clostridium difficile [3]; C. difficile 1153): 1.0 µg/mL
MIC (Clostridium difficile [3]; C. difficile 2634): 1.0 µg/mL
MIC (Clostridium difficile [3]; C. difficile 3424-5B): 0.5 µg/mL
MIC (Clostridium difficile [3]; C. difficile 3816): 0.5 µg/mL
MIC (Clostridium difficile [3]; C. difficile 3950): 0.5 µg/mL
MIC (Clostridium difficile [3]; C. difficile 6890): 0.5 µg/mL
MIC (Clostridium difficile [3]; C. difficile 8484): 0.5 µg/mL
MIC (Clostridium difficile [3]; C. difficile A-194): 0.5 µg/mL
MIC (Clostridium difficile [3]; C. difficile A-195): 0.5 µg/mL
MIC (Clostridium difficile [3]; C. difficile A-196): 1.0 µg/mL
MIC (Clostridium difficile [3]; C. difficile A-279): 0.5 µg/mL
MIC (Clostridium difficile [3]; C. difficile A-280): 0.5 µg/mL
MIC (Clostridium difficile [3]; C. difficile A-281): 1.0 µg/mL
MIC (Clostridium difficile [3]; C. difficile WAL-2112): 0.5 µg/mL
MIC (Clostridium difficile [3]; C. difficile WAL-3657): 0.5 µg/mL
MIC (Clostridium difficile [3]; C. difficile WAL-4268): 0.5 µg/mL
MIC (Clostridium septicum): 0.5 µg/mL
MIC (Clostridium difficile [4]): 0.5 µg/mL
MIC (B. thetaiotaomicron): 64 µg/mL
MIC (Bacteroides corrodens): 64 µg/mL
MIC [5]: 0.5 µg/mL
MIC (Streptococcus pyogenes): 0.25 µg/mL
MIC (Streptococcus pneumoniae): 0.25 µg/mL
MIC [6]: 0.25 µg/mL
MIC ([7]; Streptococcus sp. Group D 9960): 1 µg/mL
MIC ([7]; Streptococcus sp. Group D X66): 1 µg/mL
MIC (Bacteroides fragilis; Bacteroides fragilis 111): 64 µg/mL
MIC (Bacteroides fragilis; Bacteroides fragilis 1877): 32 µg/mL
MIC (Bacteroides fragilis; Bacteroides fragilis 1936B): 64 µg/mL
MIC [8]: 32 µg/mL
Solubility (Solubility in solvents): soluble in the same solvents as factor A
MIC [9]: 32 µg/mL
MIC (Staphylococcus aureus; Staphylococcus aureus 3055): 0.125 µg/mL
MIC (Staphylococcus aureus; Staphylococcus aureus S13E): 0.25 µg/mL
MIC (Staphylococcus aureus; Staphylococcus aureus V41): 0.25 µg/mL
MIC (Staphylococcus aureus; Staphylococcus aureus X400): 0.25 µg/mL
MIC (Fusobacterium symbiosum): 1.0 µg/mL
MIC [10]: 32 µg/mL
MIC (Peptococcus prevoti): 32 µg/mL
MIC (Bacteroides vulgatis): 32 µg/mL
